The IC50 is the concentration that inhibits the measured activity by half. The term CC50 denotes the concentration at which the toxic effect on the cells reaches its halfway point.

We go through 21 compounds from ChEMBL document CHEMBL5331075, “New antileishmanial quinoline linked isatin derivatives targeting DHFR-TS and PTR1: Design, synthesis, and molecular modeling studies” (Eur J Med Chem, 2023).

Data set [1] deals with Leishmania major. The data set can be described thus: Antileishmanial activity against Leishmania major amastigotes assessed as parasite growth inhibition incubated for 72 hrs by resazurin dye based assay. It counts as functional, organism-based. (The colour change of resazurin is a common sign of viable cells or microbes.)
Data set [2] has as its system Leishmania major. Nature of the data set: Antileishmanial activity against Leishmania major promastigotes assessed as parasite growth inhibition incubated for 24 hrs by Alamar blue staining based assay. It counts as functional, organism-based.
Data set [3] has as its system Leishmania major. Nature of the data set: Antileishmanial activity against Leishmania major promastigotes assessed as parasite growth inhibition at 20 uM incubated for 48 hrs in presence of folic acid relative to control. It counts as functional. More on the design: scale not given: the % may be the effect or the level left.
Data set [4] deals with Leishmania major. Nature of the data set: Antileishmanial activity against Leishmania major promastigotes assessed as parasite growth inhibition at 100 uM incubated for 48 hrs in presence of folinic acid relative to control. The format is functional. Details: scale not given: the % may be the effect or the level left.
Data set [5] can be described thus: Selectivity index, ratio of CC50 for cytotoxicity against African green monkey Vero cells to IC50 for antileishmanial activity against Leishmania major amastigotes assessed as parasite growth inhibition. The conditions noted are these: read-out: Ratio CC50/IC50. The format is toxicity, cell-based.
Data set [6] concerns Leishmania major. The data set can be described thus: Antileishmanial activity against Leishmania major promastigotes assessed as parasite growth inhibition at 100 uM incubated for 48 hrs in presence of folic acid relative to control. It counts as functional. More on the design: scale not given: the % may be the effect or the level left.
Data set [7] in a line: Cytotoxicity against African green monkey Vero cells assessed as reduction in cell viability incubated for 72 hrs by crystal violet staining based analysis. The format is toxicity. The settings on record: chlorocebus sabaeus.
Data set [8] relates to Leishmania major. The data set can be described thus: Antileishmanial activity against Leishmania major promastigotes assessed as parasite growth inhibition at 20 uM incubated for 48 hrs in presence of folinic acid relative to control. It counts as functional. Details: scale not given: the % may be the effect or the level left.
For data set [9], the system named is Leishmania major. The data set can be described thus: Antileishmanial activity against Leishmania major promastigotes assessed as parasite growth inhibition incubated for 48 hrs. It counts as functional. More on the design: scale not given: the % may be the effect or the level left.

Regarding `CCN1C(=O)/C(=N\Nc2ccnc3cc(Cl)ccc23)c2ccccc21`, the values for the IC50 in the data set on Leishmania major [1] and with Leishmania major [2] were 5.85 µM and 3.45 µM, respectively.
Taken in the same sequence, the figures for `CCN1C(=O)/C(=N/Nc2ccnc3cc(Cl)ccc23)c2cc(Cl)ccc21` were 4.34 µM and 2.96 µM.
`O=C1Nc2ccc(OC(F)(F)F)cc2/C1=N/Nc1ccnc2cc(Cl)ccc12`: the Activity with Leishmania major [3] is 86%; in the data set with Leishmania major [4] it was 98%; in the data set on Leishmania major [6], 93%; with Leishmania major [8], 96%; in the data set on Leishmania major [9] it was 28%. Also, the values for the IC50 in the data set on Leishmania major [1] and with Leishmania major [2] were 0.944 µM and 0.668 µM, respectively. The selectivity ratio in data set [5] amounted to 326. Also, the cytotoxic concentration (CC50) at 72 h in data set [7] turned out to be 308 µM.
In the case of `CN1C(=O)/C(=N\Nc2ccnc3cc(Cl)ccc23)c2ccccc21`, the IC50 with Leishmania major [1] came to 3.49 µM; in the data set with Leishmania major [2], 1.88 µM.
For `COc1cc(Cc2cnc(N)nc2N)cc(OC)c1OC` [TRIMETHOPRIM], the Activity is 99% in the data set with Leishmania major [6] and 71% with Leishmania major [9].
Consider `O=C1/C(=N/Nc2ccnc3cc(Cl)ccc23)c2cc(Br)ccc2N1Cc1ccccc1`, for which the figures for the IC50 with Leishmania major [1] and in the data set with Leishmania major [2] were 8.29 µM and 5.95 µM, respectively.
With `O=C1Nc2ccc(Br)cc2/C1=N/Nc1ccnc2cc(Cl)ccc12`, the Activity in the data set with Leishmania major [3] is 74%; in the data set with Leishmania major [4] it was 91%; with Leishmania major [6] it was 87%; with Leishmania major [8], 76%; in the data set with Leishmania major [9], 21%. The concentration for half-maximal inhibition (IC50) in the data set with Leishmania major [1] stood at 0.604 µM; in the data set on Leishmania major [2], 0.508 µM. The selectivity ratio in data set [5] worked out at 258. Moreover, the cytotoxic concentration (CC50) at 72 h in data set [7] was 156 µM.
`O=C1Nc2ccccc2/C1=N/Nc1ccnc2cc(Cl)ccc12`: the IC50 with Leishmania major [1] was determined as 2.45 µM; with Leishmania major [2] it was 0.986 µM.
For `CCN1C(=O)/C(=N/Nc2ccnc3cc(Cl)ccc23)c2cc(Br)ccc21`, the 50% inhibitory concentration (IC50) in the data set with Leishmania major [1] stood at 5.12 µM; in the data set on Leishmania major [2], 3.21 µM.
In the case of `CCCN1C(=O)/C(=N/Nc2ccnc3cc(Cl)ccc23)c2ccccc21`, the IC50 was 5.49 µM in the data set with Leishmania major [1] and 3.16 µM in the data set with Leishmania major [2].
Turning to `O=C1Nc2ccc(F)cc2/C1=N/Nc1ccnc2cc(Cl)ccc12`, the Activity in the data set on Leishmania major [3] was found to be 80%; in the data set with Leishmania major [4] it was 94%; in the data set on Leishmania major [6], 90%; in the data set with Leishmania major [8], 84%; in the data set with Leishmania major [9], 25%. Besides, the figures for the IC50 in the data set with Leishmania major [1] and with Leishmania major [2] were 0.721 µM and 0.557 µM, respectively. Moreover, the selectivity ratio in [5] came to 255. Further, in data set [7], the CC50 at 72 h came out at 184 µM.
For the compound `CC(C)CN1C(=O)/C(=N/Nc2ccnc3cc(Cl)ccc23)c2cc(Br)ccc21`, the results for the IC50 in the data set with Leishmania major [1] and in the data set on Leishmania major [2] were 6.86 µM and 4.11 µM, respectively.
For `O=C1/C(=N/Nc2ccnc3cc(Cl)ccc23)c2cc(Cl)ccc2N1Cc1ccccc1`, the 50% inhibitory concentration (IC50) was determined as 5.3 µM with Leishmania major [1] and 4 µM in the data set on Leishmania major [2].
In the same order, the values of `O=C1/C(=N/Nc2ccnc3cc(Cl)ccc23)c2ccccc2N1Cc1ccccc1` are 6.88 µM and 3.97 µM.
In the case of `O=C1Nc2ccc(Cl)cc2/C1=N/Nc1ccnc2cc(Cl)ccc12`, the figures for the IC50 in the data set on Leishmania major [1] and in the data set with Leishmania major [2] were 1.26 µM and 0.67 µM, respectively.
With `CCCN1C(=O)/C(=N/Nc2ccnc3cc(Cl)ccc23)c2cc(Cl)ccc21`, the IC50 with Leishmania major [1] was determined as 4.99 µM; in the data set on Leishmania major [2], 2.99 µM.
Taken in the same sequence, the figures for `CC(C)CN1C(=O)/C(=N/Nc2ccnc3cc(Cl)ccc23)c2cc(Cl)ccc21` were 6.03 µM and 3.5 µM.
Taken in the same sequence, the figures for `CC(C)CN1C(=O)/C(=N\Nc2ccnc3cc(Cl)ccc23)c2ccccc21` were 3.99 µM and 2.67 µM.
Taken in the same sequence, the figures for `CN1C(=O)/C(=N/Nc2ccnc3cc(Cl)ccc23)c2cc(Br)ccc21` were 3.46 µM and 1.74 µM.
Turning to `CN1C(=O)/C(=N/Nc2ccnc3cc(Cl)ccc23)c2cc(Cl)ccc21`, the values for the IC50 in the data set with Leishmania major [1] and in the data set with Leishmania major [2] were 3.25 µM and 1.87 µM, respectively.
In the same order, the values of `O=C1Nc2c(F)cccc2/C1=N/Nc1ccnc2cc(Cl)ccc12` are 1.1 µM and 1.1 µM.
